Converted amounts (≈) assume the structure as drawn.
Assays:
Ileum [1] = experiment: (§1) Spasmolytic activity in isolated guinea pig ileum assessed as spasmogen-induced inhibition of smooth muscle contraction at 10 ug; type: functional, Cavia porcellus; parameters: scale not given: the % may be the effect or the level left
Ileum [2] = experiment: as §1; type: functional, Cavia porcellus; parameters: scale not given: the % may be the effect or the level left; remark: listed apart in the source
Ileum [3] = experiment: Spasmolytic activity in isolated guinea pig ileum assessed as spasmogen-induced inhibition of smooth muscle contraction; type: functional, tissue-based; conditions: Cavia porcellus

IC50 (Ileum [3]) [µg/mL] | Compound | Activity (Ileum [1]) [%] | Activity (Ileum [2]) [%] | Activity (Ileum [3])
– | COc1cc2c(cc1OC)[C@H]1[C@@H](C)c3ccc4c(c3CN1CC2)OCO4 [CAVIDINE] | 84 | 100 | Dose-dependent effect
– | COc1cc2c(cc1OC)-c1c(C)c3ccc4c(c3c[n+]1CC2)OCO4.[Cl-] [DEHYDROCAVIDINE] | 20 | 40 | Dose-dependent effect
0.5 (≈ 1.3 µM) | COc1cc2c(cc1OC)C1(C(=O)c3ccc4c(c3[C@H]1O)OCO4)N(C)CC2 (stereo partly drawn) [YENHUSOMIDINE] | 17 | 52 | Dose-dependent effect
– | COc1cc2c(cc1OC)[C@@H]([C@H]1OC(=O)c3c1ccc1c3OCO1)N(C)CC2 [CORLUMINE] | 0 | 50 | Dose-dependent effect

Source: ChEMBL document CHEMBL1145659, “The alkaloids of Corydalis meifolia” (J Nat Prod, 1983)
